Data reported in paper PMC10112232, “Comparison of Toxicities among Different Bumped Kinase Inhibitor Analogs for Treatment of Cryptosporidiosis” (Antimicrobial Agents and Chemotherapy, 2023).
Read-outs that look alike come from different tables or passages of the source.

Columns and labels:
[1] = Pharmacokinetics in mice (plasma, brain, GI tissues) by LC/MS-MS; format: in vivo, mouse; details: for Kp: mouse, brain, read-out: brain penetration (brain tissue to plasma area-under-the-curve)
Protocol: For evaluation of its suitability for in vivo dosing, BKI-1841 was also tested in mice for plasma exposure after a single dose (Fig. 2). […] A dose of 25 mg/kg BKI-1841 was used to evaluate brain penetration over 4 h using the same method (Fig. 2).
(§1) Methods for synthesis of BKIs ([17], [23]), efficacy against Nluc expressing C. parvum in infected adult IFN-γ KO mice ([6], [9]), in vivo mouse GI tract tissue exposure by LC/MS-MS analysis ([18], [28]), PK analysis of mouse plasma and brain tissue BKI concentrations by LC/MS-MS analysis ([29]), in vivo rat and dog cardiotoxicity screen ([30]), efficacy against IOWA-II strain C. parvum in infected neonatal calves ([13]), efficacy against C. hominis in infected piglets ([12]), in vitro inhibition of C. parvum CDPK1 (CpCDPK1) and human tyrosine kinase SRC (HsSRC) activity ([31]), in vitro inhibition of hERG ([32]), Nluc expressing C. parvum in vitro growth inhibition in infected HCT-8 cells ([6]), in vitro cytotoxicity in CRL-8155 and HepG2 cells ([29]), and mouse locomotor activity box ([33], [34]) have all been previously described. Analytes were measured by LC/MS-MS on an Acquity ultra performance liquid chromatography (UPLC) system in tandem with a Xevo TQ-S mass spectrometer (Waters, Milford, MA, USA).

[2] = Multidose mouse toxicity, tibial epiphyseal growth plate; format: in vivo; details: for gross signs of toxicity / width of the tibia epiphyseal growth plate vs vehicle controls: 3 week old mice, oral 150 mg/kg QD for 7 days; for width of the tibia epiphyseal growth plate vs vehicle controls: n = 3
Protocol: The recurring presence of toxicity in calves manifesting as dropped pasterns, as well as the observations of bone toxicity in rats, led to the exploration of possible bone toxicity screening in mice to allow for screening prior to dosing in larger animals. To test for effects to the growth plate in developing bones, 3 week old mice were dosed for 7 days QD and euthanized 24 h after the final dose. The right and left tibia were dissected from each mouse and stained with AgNO3 to visualize the growth plate and measurements across the widths compared to vehicle-only treated controls. […] The remaining two mice for this treatment were immediately euthanized and their tibias extracted early on day 4.
Mouse toxicity testing and evaluation of the tibial epiphyseal plate have been previously described ([18], [38]) and were performed with some modifications. Briefly, 3 week old BALB/c mice (n = 3) were dosed orally once daily for 7 days. Mice were euthanized along with vehicle treated controls by cardiac puncture for collection of blood for analysis. Necropsy, obtaining blood for serum chemistries, histology of organs (brain, heart, lungs, spleen, liver, stomach, small intestine, large intestine and kidney), and removal of tibias were performed within 24 h of the final dose. Examination of organ histology included routine H&E and Oil-Red O (lipid)-stained organs from the treated mice and a set of untreated matched controls. Pathological examination was performed by a board certified pathologist who was blinded to the treatment and control group identities. Tibias were removed and immediately placed in dH2O for a minimum of 1 h. Using a fresh number 11 scalpel blade, a quick sagittal cut was made across the femoral condyle opposite the fibula, and a second cut was made across the second femoral condyle separating the fibula and tibia. The tibias were then immersed in acetone for 1 h to dehydrate. Dehydrated tibias were washed in dH2O for 2 min, then soaked in 1.5% AgNO3 for 1 min in a container protected from light. Tibias were then rinsed in dH2O for 2 min and exposed to strong light for 10 sec. Stained tibias were stored in 70% ethanol for >10 min before examining the growth plates at ×40 magnification using an Amscope stereo microscope with a mounted camera. Photos were taken using the Amscope image capture software. A calibration slide was used to establish a μm to pixel ratio of 1:1.184. Using the Measurement Tool, 10 measurements were taken across each epiphyseal plate by orienting the cursor at right angles from the growth plate borders by two different researchers (one set unblinded; one set blinded) and average width was assigned to each tibia from each animal.

[3] = Mouse locomotor activity box; format: in vivo; details: mice, 150 mg/kg QD for 5 days; for distance traveled / stereotypic horizontal activity / vertical rearing activity: vs controls
Protocol: BKIs –1770, -1841, and -1708 were tested in the mouse locomotor activity box to screen for possible neurological issues (Fig. S7). All three BKIs were dosed at 150 mg/kg QD for 5 days.
as §1

[4] = Plasma concentrations and clinical toxicity signs in treated neonatal calves; format: in vivo, calf; details: for Cmax: bovine, plasma
Protocol: (§2) There were also improvements in the treated calves in both fecal volume and consistency, urine output, weight gain and daily clinical scores compared to control calves (Fig. S3). […] Fecal volume, fecal consistency, and clinical scores were improved for all treatment groups compared to controls, but these improvements were delayed for the 1 mg/kg group.
(§3) BKI-1841 was dosed at 5, 2, and 1 mg/kg BID for 3 days and 2 mg/kg QD for 4 days (Fig. 5, Fig. S4). […] Urine output was consistent for all groups, including controls, and fecal volume and consistency were improved for all groups over controls (Fig. S4). […] This occurred to some degree with all dosing regimens, developing with the fewest doses at 5 mg/kg BID. With the lowest dose of 1 mg/kg BID, the onset of dropped pasterns began after the third dose and continued until self-resolving 2 days after dosing concluded. All signs of dropped pasterns were gone by the end of the experiment on day 10 postinfection.

[5] = test system: C. parvum; assay: Efficacy in neonatal calves infected with C. parvum; format: in vivo
Protocol: as §2
Total oocyst excretion determined by RT-PCR concentration and total by fecal weight shed per day. (A) Oocyst excretion per day after treatment with BKI-1770. […] (C) Oocyst excretion per day after treatment with BKI-1841. (D) Cumulative total oocyst excretion for days 3 through 10 after treatment with BKI-1841. […] BKI-1841 BID treatments were administered on days 2 through 4 and QD treatments were administered on days 2 through 5. […] QD = once daily, BID = twice daily.
as §3, §1

CCOc1ccc2cc(-c3nn(C(C)(C)CCO)c(N)c3C(N)=O)ccc2c1 [BKI-1770]
time to depletion in plasma to submicromolar concentrations ([1]; mice, after oral dosing): 1 to 2 h | ileum tissue concentration ([1]; mice, single 30 mg/kg oral dose, through 12 h): > 1 µM | Kp ([1]; mice, single 30 mg/kg oral dose): 0.1 | gross signs of toxicity [2]: no gross signs of toxicity | width of the tibia epiphyseal growth plate vs vehicle controls [2]: significant (P < 0.05) increases | overall effect on locomotor activity [3]: depression in movement | distance traveled [3]: significant (P < 0.05) decrease in distance traveled from 20 to 60 min | stereotypic horizontal activity [3]: increased horizontal activity from 0 to 40 min | vertical rearing activity [3]: decreased vertical activity throughout the study | hyperflexion of the limbs (dropped pasterns) ([4]; 5 mg/kg BID for 5 days): observed in two of the 5 mg/kg calves | bloody diarrhea ([4]; 5 mg/kg BID, one calf): some bloody diarrhea | Cmax ([4]; 3 mg/kg BID, at 4 h post dose 1, read-out: plasma observed Cmax): 3.4 ± 0.06 µM | Cmax ([4]; 5 mg/kg BID, at 4 h post dose 5, read-out: plasma observed maximum concentration (Cmax)): 10.3 ± 5.4 µM | total oocysts excreted ([5]; 5 mg/kg BID for 5 days (n = 5), days 3 to 10 postinfection, control 1.62E10): 2.58E9 oocysts | minimal efficacious dose ([5]; BID): 3 mg/kg | total oocyst excretion per day vs controls ([5]; all dosed groups (5, 3, 2, 1 mg/kg BID for 5 days)): significant differences

CCOc1ccc2cc(-c3nn(C4CCOCC4)c(N)c3C(N)=O)ccc2n1 [BKI-1841]
plasma exposure ([1]; for more than 6 h after a single 25 mg/kg dose in mice): > 1 µM | signs of toxicity ([1]; mice, single 25 mg/kg dose): no signs of toxicity | Kp ([1]; mice, single 25 mg/kg oral dose, over 4 h): 0.27 | gross signs of toxicity [2]: no gross signs of toxicity | width of the tibia epiphyseal growth plate vs vehicle controls [2]: did not show significant increases | blood chemistry and histology vs control animals ([2]; mice (data not shown)): no abnormalities or indications of toxicity | overall effect on locomotor activity [3]: depression in movement | distance traveled [3]: significant (P < 0.05) decrease | stereotypic horizontal activity [3]: significant (P < 0.05) decrease | vertical rearing activity [3]: significant (P < 0.05) decrease | predose plasma concentration ([4]; 1 mg/kg BID, last day of treatment): 1.3 ± 0.1 µM | ataxia ([4]; 5 mg/kg BID, during the 3 days of dosing): signs of ataxia | hyperflexion of the limbs (dropped pasterns) ([4]; all dosing regimens (5, 2, 1 mg/kg BID 3 days; 2 mg/kg QD 4 days)): all calves dosed with BKI-1841 showed signs of hyperflexion of the limbs seen as dropped pasterns | safety index ([4]; dropped pasterns at lowest dose tested (1 mg/kg BID)): < 1 | total oocyst excretion reduction ([5]; 1 mg/kg BID for 3 days): little reduction | total oocyst excretion per day vs controls ([5]; 1 mg/kg group): no significant difference | total oocyst excretion reduction ([5]; 5 mg/kg BID for 3 days and 2 mg/kg BID given for 3 or 4 days): 2 to 4 log | total oocyst excretion per day vs controls ([5]; 5 mg/kg and both 2 mg/kg groups): significant differences
